One compound from PMC11345752, “In Situ Biofilm Affinity-Based Protein Profiling Identifies the Streptococcal Hydrolase GbpB as the Target of a Carolacton-Inspired Chemical Probe” (Journal of the American Chemical Society, 2024) can be followed below.

By IC50 is commonly meant the concentration that gives 50% inhibition.

This experiment concerns the target T1, FolD (Escherichia coli, UniProt P24186).
T1 construct: purified E. coli FolD
The experiment in a line: dehydrogenase assay with purified FolD. It counts as biochemical.

Compound `COC(CC(=O)O)C(C)C(=O)C(C)/C=C(\C)C1OC(=O)C(O)C(O)C=CC(C)CCCC1C` (stereo not shown) [carolacton] yielded an IC50 of 94 nM.
